Test [1] deals with Klebsiella pneumoniae ATCC BAA-1705. As to the kind of experiment: Mouse lung infection model, bacterial load. As to conditions: endpoint 12 h. The class given is in vivo, CD-1 female mice. The method, then:
(§1) 36 CD-1 female mice were divided into 12 cages with 3 […] in each cage. The day of infection was denoted as day 0.
(§2) Immunosuppressant cyclophosphamide at 150 mg/kg was injected intraperitoneally on day −4 and immunosuppressant cyclophosphamide at 100 mg/kg was injected intraperitoneally on day −1 to induce immunodeficient mice.
On day −1, the strain Klebsiella pneumoniae ATCC BAA-1705 was resuscitated on an MHA plate. Resuscitated colonies were picked and dissolved in sterile physiological saline to prepare a bacterial solution with a concentration of 2.75E+08 CFU/mL for lung infection by nasal drip. The initial time of infection was denoted as 0 h, and 50 μL of the bacterial solution was injected into each mouse by nasal drip at 0 h, that is, the inoculation amount was 1.38E+07 CFU/mouse. 2 h after infection, dosing was performed according to the experimental scheme. The specific experimental scheme was as follows (see Table 6): • (1) 2 h after infection: for the 1st cage of mice, at the endpoint, lung tissue was taken and placed in 10 mL of sterile physiological saline, the tissue was homogenized by a homogenizer, and the homogenate was diluted in a gradient and spotted in a plate, with two replicates for each mouse. • (2) 2 h after infection: the 2nd to 12th cages were respectively treated at 10 mL/kg by volume according to the body weight of the mice, the 2nd cage of mice were given a vehicle by intravenous injection every 2 h, and the endpoint was 12 h; the 3rd cage of mice were given 100 mg/kg of meropenem by intravenous injection every 2 h, and the endpoint was 12 h; the 4th cage of mice were given 100 mg/kg of meropenem and 20 mg/kg of QPX7728 by intravenous injection every 2 h, and the endpoint was 12 h; the 5th cage of mice were given 100 mg/kg of meropenem and 100 mg/kg of compound 15 by intravenous injection every 2 h, and the endpoint was 12 h; the 6th cage of mice were given 100 mg/kg of meropenem and 20 mg/kg of compound 15 by intravenous injection every 2 h, and the endpoint was 12 h; the 7th cage of mice were given 100 mg/kg of meropenem and 4 mg/kg of compound 15 by intravenous injection every 2 h, and the endpoint was 12 h; the 8th cage of mice were given 100 mg/kg of cefepime by intravenous injection every 2 h, and the endpoint was 12 h; the 9th cage of mice were given 100 mg/kg of cefepime and 20 mg/kg of QPX7728 by intravenous injection every 2 h, and the endpoint was 12 h; the 10th cage of mice were given 100 mg/kg of cefepime and 100 mg/kg of compound 15 by intravenous injection every 2 h, and the endpoint was 12 h: the 11th cage of mice were given 100 mg/kg of cefepime and 20 mg/kg of compound 15 by intravenous injection every 2 h, and the endpoint was 12 h; and the 12th cage of mice were given 100 mg/kg of cefepime and 4 mg/kg of compound 15 by intravenous injection every 2 h, and the endpoint was 12 h. At the endpoint, lung tissue was taken and placed in 10 mL of sterile physiological saline, the tissue was homogenized by a homogenizer, and the homogenate was diluted in a gradient and spotted in a plate, with two replicates for each mouse. The bacterial load in the lung tissue of the mice was counted, and the experiment was summarized as follows (see Table 7): […]

The test system is the same in test [2]. As to the kind of experiment: Mouse thigh muscle infection model, bacterial load. It is filed as in vivo, CD-1 female mice. As to conditions: endpoint 12 h. As to the method: as §1, §2
On day −1, the strain Klebsiella pneumoniae ATCC BAA-1705 was resuscitated on an MHA plate. Resuscitated colonies were picked and dissolved in sterile physiological saline to prepare a bacterial solution with a concentration of 5.6E+07 CFU/mL for thigh muscle infection in mice. The initial time of infection was denoted as 0 h, and 100 μL of the bacterial solution was injected into each mouse at the thigh muscle at 0 h, that is, the inoculation amount was 5.6E+06 CFU/mouse. 2 h after infection, dosing was performed according to the experimental scheme. The specific experimental scheme was as follows (see Table 4): • (1) 2 h after infection: for the 1st cage of mice, at the endpoint, thigh muscle tissue was taken and placed in 10 mL of sterile physiological saline, the tissue was homogenized by a homogenizer, and the homogenate was diluted in a gradient and spotted in a plate, with two replicates for each mouse. • (2) 2 h after infection: the 2nd to 12th cages were respectively treated at 10 mL/kg by volume according to the body weight of the mice, the 2nd cage of mice were given a vehicle by intravenous injection every 2 h, and the endpoint was 12 h; the 3rd cage of mice were given 100 mg/kg of meropenem by intravenous injection every 2 h, and the endpoint was 12 h; the 4th cage of mice were given 100 mg/kg of meropenem and 20 mg/kg of QPX7728 by intravenous injection every 2 h, and the endpoint was 12 h; the 5th cage of mice were given 100 mg/kg of meropenem and 100 mg/kg of compound 15 by intravenous injection every 2 h, and the endpoint was 12 h; the 6th cage of mice were given 100 mg/kg of meropenem and 20 mg/kg of compound 15 by intravenous injection every 2 h, and the endpoint was 12 h; the 7th cage of mice were given 100 mg/kg of meropenem and 4 mg/kg of compound 15 by intravenous injection every 2 h, and the endpoint was 12 h; the 8th cage of mice were given 100 mg/kg of cefepime by intravenous injection every 2 h, and the endpoint was 12 h; the 9th cage of mice were given 100 mg/kg of cefepime and 20 mg/kg of QPX7728 by intravenous injection every 2 h, and the endpoint was 12 h; the 10th cage of mice were given 100 mg/kg of cefepime and 100 mg/kg of compound 15 by intravenous injection every 2 h, and the endpoint was 12 h; the 11th cage of mice were given 100 mg/kg of cefepime and 20 mg/kg of compound 15 by intravenous injection every 2 h, and the endpoint was 12 h; and the 12th cage of mice were given 100 mg/kg of cefepime and 4 mg/kg of compound 15 by intravenous injection every 2 h, and the endpoint was 12 h. At the endpoint of 12 h, thigh muscle tissue was taken and placed in 10 mL of sterile physiological saline, the tissue was homogenized by a homogenizer, and the homogenate was diluted in a gradient and spotted in a plate, with two replicates for each mouse. The bacterial load in the thigh muscle tissue of the mice was counted, and the experiment was summarized as follows (see Table 5): […]

[3] abbreviates: cefepime 100 mg/kg + inhibitor 4 mg/kg i.v. q2h.
[4] abbreviates: cefepime 100 mg/kg + inhibitor 20 mg/kg i.v. q2h.
[5] abbreviates: cefepime 100 mg/kg + inhibitor 100 mg/kg i.v. q2h.
Where [6] appears, read: meropenem 100 mg/kg + inhibitor 4 mg/kg i.v. q2h.
[7] abbreviates: meropenem 100 mg/kg + inhibitor 20 mg/kg i.v. q2h.
[8] abbreviates: meropenem 100 mg/kg + inhibitor 100 mg/kg i.v. q2h.
Setting [9] is: antibiotic alone 100 mg/kg i.v. q2h.

Turning to `CCOc1ccc2c(c1C(=O)O)O[B-](O)(O)CO2` [Compound 15], the “Average CFU in mice (lung tissue)” value is 2.38E+06 CFU/mouse in test [1] (setting [3]); 3.73E+05 CFU/mouse in test [1] (setting [4]); 1.84E+05 CFU/mouse in test [1] (setting [5]); 6.83E+07 CFU/mouse in test [1] (setting [6]); 6.04E+06 CFU/mouse in test [1] (setting [7]); 7.67E+05 CFU/mouse in test [1] (setting [8]). Also, the “Average CFU in mice (thigh muscle tissue)” value in test [2] (setting [3]) was 5.68E+06 CFU/mouse; in test [2] (setting [4]), 2.06E+06 CFU/mouse; in test [2] (setting [5]), 1.24E+06 CFU/mouse; in test [2] (setting [6]), 1.65E+07 CFU/mouse; in test [2] (setting [7]), 4.08E+06 CFU/mouse; in test [2] (setting [8]), 2.02E+06 CFU/mouse.

As for `C[C@@H](O)[C@H]1C(=O)N2C(C(=O)O)=C(S[C@@H]3CN[C@H](C(=O)N(C)C)C3)[C@H](C)[C@H]12` [Meropenem, meropenem, reference compound], the “Average CFU in mice (lung tissue)” value in test [1] (setting [9]) is on record as 2.73E+08 CFU/mouse. Further, the “Average CFU in mice (thigh muscle tissue)” value in test [2] (setting [9]) was found to be 4.83E+08 CFU/mouse.
